The values below come from PubChem BioAssay AID248 (DTP/NCI, 2004).

This test relates to L1210 leukemia ip in BDF1 mice, survival T/C. Briefly: NCI In Vivo Anticancer Drug Screen. Data for tumor model L1210 Leukemia (intraperitoneal) in B6D2F1 (BDF1) mice. Conditions: endpoint: mean survival time, higher = longer survival. In outline:
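Transplanted-tumor mice were given test agent; controls received vehicle only. Survival readings from the two groups were divided (treated over control).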

Setting [1] is: dose: 100.0 mg/kg/injection, schedule: Q01DX001 (ip), vehicle: carboxymethylcellulose (CMC).
The mark [2] stands for this setting: dose: 200.0 mg/kg/injection, schedule: Q01DX001 (ip), vehicle: carboxymethylcellulose (CMC).
[3] abbreviates: dose: 400.0 mg/kg/injection, schedule: Q01DX001 (ip), vehicle: carboxymethylcellulose (CMC).
Where [4] appears, read: dose: 100.0 mg/kg/injection, schedule: Q01DX009 (ip), vehicle: saline with Tween-80.
Where [5] appears, read: dose: 100.0 mg/kg/injection, schedule: Q04DX003 (ip), vehicle: saline with Tween-80.
The mark [6] stands for this setting: dose: 200.0 mg/kg/injection, schedule: Q01DX009 (ip), vehicle: saline with Tween-80.
Where [7] appears, read: dose: 200.0 mg/kg/injection, schedule: Q04DX003 (ip), vehicle: saline with Tween-80.
[8] abbreviates: dose: 400.0 mg/kg/injection, schedule: Q01DX009 (ip), vehicle: saline with Tween-80.
Setting [9] is: dose: 400.0 mg/kg/injection, schedule: Q04DX003 (ip), vehicle: saline with Tween-80.
Setting [10] is: dose: 100.0 mg/kg/injection, schedule: Q01DX009 (ip), vehicle: Klucel (hydroxypropylcellulose) (HPC).
[11] abbreviates: dose: 200.0 mg/kg/injection, schedule: Q01DX009 (ip), vehicle: Klucel (hydroxypropylcellulose) (HPC).
[12] abbreviates: dose: 100.0 mg/kg/injection, schedule: Q01DX001 (ip), vehicle: saline.
Setting [13] is: dose: 200.0 mg/kg/injection, schedule: Q01DX001 (ip), vehicle: saline.
[14] abbreviates: dose: 400.0 mg/kg/injection, schedule: Q01DX001 (ip), vehicle: saline.
Where [15] appears, read: dose: 25.0 mg/kg/injection, schedule: Q01DX009 (ip), vehicle: saline with Tween-80.
[16] abbreviates: dose: 50.0 mg/kg/injection, schedule: Q01DX009 (ip), vehicle: saline with Tween-80.

SMILES strings stand for the structures. Several values for one entry are separate records, joined by “and”; a condition that tells them apart may be missing. Equal values may be shown once. Toxic doses and inconclusive results are not listed.

In the case of `CC1([N+](=O)[O-])COP(=O)(NC2CC2)OC1` (stereo unspecified), the T/C is 97 % of control (dose: 50.0 mg/kg/injection, schedule: Q01DX001 (ip), vehicle: carboxymethylcellulose (CMC)); 97 % of control under setting [1]; 103 % of control under setting [2]; 97 % of control under setting [3].

Take `O=C(Nc1ccccc1)N(Cc1ccccc1)c1ccccc1`: the T/C is 90 % of control under setting [4]; 101 % of control under setting [5]; 89 % of control under setting [6]; 101 % of control under setting [7]; 96 % of control under setting [8]; 86 % of control under setting [9].

For `CC(Cc1ccccc1)NCCc1c2ccccc2nc2ccccc12` (stereo unspecified), the T/C (dose: 12.5 mg/kg/injection, schedule: Q01DX009 (ip), vehicle: Klucel (hydroxypropylcellulose) (HPC)) was 101 % of control; the T/C (dose: 25.0 mg/kg/injection, schedule: Q01DX009 (ip), vehicle: Klucel (hydroxypropylcellulose) (HPC)) is 102 % of control; the T/C (dose: 50.0 mg/kg/injection, schedule: Q01DX009 (ip), vehicle: Klucel (hydroxypropylcellulose) (HPC)) is 98 % of control; the T/C under setting [10] was 104 % of control; the T/C under setting [11] was 91 % of control.

Consider `CC(C)C1=CC2=CCC3C(C)(C(N)=O)CCCC3(C)C2CC1CC#N` (stereo unspecified), for which the T/C by setting is: under setting [4], 93 % of control; under setting [6], 93 % of control; under setting [7], 91 % of control; under setting [8], 94 % of control; under setting [9], 93 % of control.

As to `O=Cc1ccc(OC(=O)Nc2ccc([N+](=O)[O-])cc2)cc1`, the T/C under setting [10] was 92 % of control; the T/C under setting [11] was 90 % of control; the T/C (dose: 400.0 mg/kg/injection, schedule: Q01DX009 (ip), vehicle: Klucel (hydroxypropylcellulose) (HPC)) is 95 % of control.

For the molecule `Cc1cn(C2CC(O)C(COP(=O)(N3CC3(C)C)N3CC3(C)C)O2)c(=O)[nH]c1=O` (stereo unspecified), the T/C (dose: 50.0 mg/kg/injection, schedule: Q04DX002 (ip), vehicle: saline) is 94 % of control; the T/C (dose: 100.0 mg/kg/injection, schedule: Q04DX002 (ip), vehicle: saline) was 105 % of control; the T/C (dose: 200.0 mg/kg/injection, schedule: Q04DX002 (ip), vehicle: saline) was 123 % of control.

For the molecule `Nc1ncnc2c1c1c(N)[nH]nc1n2C1OC(CO)C(O)C1O` (stereo unspecified), the T/C by setting is: (dose: 12.5 mg/kg/injection, schedule: Q01DX009 (ip), vehicle: saline) 114 % of control; (dose: 25.0 mg/kg/injection, schedule: Q01DX009 (ip), vehicle: saline) 121 % of control; (dose: 50.0 mg/kg/injection, schedule: Q01DX009 (ip), vehicle: saline) 150 % of control; under setting [12], 104 % of control; under setting [13], 106 % of control; under setting [14], 121 % of control.

On to `Cc1cn(C2CCCCO2)c(=O)nc1NO` (stereo unspecified), for which the T/C runs as follows: under setting [1], 95 % of control; under setting [2], 90 % of control; under setting [3], 108 % of control.

In the case of `O=C(NC(=O)C(Cl)Cl)Nc1cccc2c1-c1ccccc1C2`, the T/C was 94 % of control (dose: 100.0 mg/kg/injection, schedule: Q01DX001 (ip), vehicle: Klucel (hydroxypropylcellulose) (HPC)); 108 % of control under setting [10]; 88 % of control (dose: 100.0 mg/kg/injection, schedule: Q04DX003 (ip), vehicle: Klucel (hydroxypropylcellulose) (HPC)); 97 % of control (dose: 200.0 mg/kg/injection, schedule: Q01DX001 (ip), vehicle: Klucel (hydroxypropylcellulose) (HPC)); 100 % of control under setting [11]; 92 % of control (dose: 200.0 mg/kg/injection, schedule: Q04DX003 (ip), vehicle: Klucel (hydroxypropylcellulose) (HPC)). For the same molecule, the T/C was 92 % of control (dose: 400.0 mg/kg/injection, schedule: Q01DX001 (ip), vehicle: Klucel (hydroxypropylcellulose) (HPC)) and 93 % of control (dose: 400.0 mg/kg/injection, schedule: Q04DX003 (ip), vehicle: Klucel (hydroxypropylcellulose) (HPC)).

As for `COc1cc2cc3c4cc(OC)c(OC)cc4cc[n+]3c(/C=C/c3cc(OC)c(OC)c(OC)c3)c2cc1OC`, the T/C (dose: 100.0 mg/kg/injection, schedule: Q04DX002 (ip), vehicle: saline with Tween-80) is 96 % of control and 106 % of control; the T/C under setting [5] is 94 % of control; the T/C (dose: 200.0 mg/kg/injection, schedule: Q04DX002 (ip), vehicle: saline with Tween-80) is 97 % of control and 104 % of control; the T/C under setting [7] was 96 % of control; the T/C (dose: 400.0 mg/kg/injection, schedule: Q04DX002 (ip), vehicle: saline with Tween-80) was 104 % of control and 92 % of control; the T/C under setting [9] is 91 % of control.

For `COc1ccc(-c2sc(C)c(-c3ccc(OC)cc3)c2C)cc1`, the T/C runs as follows: under setting [12], 96 % of control; under setting [13], 96 % of control; under setting [14], 94 % of control.

Regarding `O=C1CC2(CCNCC2)C(=O)N1N1CCCCCC1`, the T/C reads like this: under setting [12], 110 % of control; under setting [13], 112 % of control; under setting [14], 100 % of control.

`O=C1c2cc(Br)ccc2-c2ccc(Br)cc21`: the T/C by setting is: (dose: 50.0 mg/kg/injection, schedule: Q01DX001 (ip), vehicle: saline) 90 % of control; under setting [12], 100 % of control; under setting [13], 90 % of control.

As for `OC1CCCCCC2CC12` (stereo unspecified), the T/C was 86 % of control (dose: 25.0 mg/kg/injection, schedule: Q01DX005 (ip), vehicle: saline with Tween-80); 98 % of control under setting [15]; 101 % of control (dose: 50.0 mg/kg/injection, schedule: Q01DX005 (ip), vehicle: saline with Tween-80); 91 % of control under setting [16]; 89 % of control and 90 % of control (dose: 100.0 mg/kg/injection, schedule: Q01DX005 (ip), vehicle: saline with Tween-80); 91 % of control under setting [4].

With `COC(=O)C1C2CC(C3OC23)C1C(=O)OC` (stereo unspecified), the T/C is, setting by setting: (dose: 100.0 mg/kg/injection, schedule: Q01DX009 (ip), vehicle: other) 110 % of control; (dose: 200.0 mg/kg/injection, schedule: Q01DX009 (ip), vehicle: other) 108 % of control; (dose: 400.0 mg/kg/injection, schedule: Q01DX009 (ip), vehicle: other) 93 % of control.

For the molecule `NCc1ccc(OCc2nc(N)nc(N)c2-c2ccc(Cl)cc2)cc1`, the T/C (dose: 25.0 mg/kg/injection, schedule: Q01DX001 (ip), vehicle: saline with Tween-80) was 97 % of control; the T/C (dose: 50.0 mg/kg/injection, schedule: Q01DX001 (ip), vehicle: saline with Tween-80) is 87 % of control; the T/C (dose: 100.0 mg/kg/injection, schedule: Q01DX001 (ip), vehicle: saline with Tween-80) was 95 % of control and 96 % of control.

As for `CCOC(=O)C(C(=O)c1ccccc1)c1cc(NS(=O)(=O)c2ccccc2)ccc1O` (stereo unspecified), the T/C runs as follows: (dose: 12.5 mg/kg/injection, schedule: Q01DX009 (ip), vehicle: saline with Tween-80) 90 % of control; under setting [15], 95 % of control; under setting [16], 94 % of control and 97 % of control; under setting [4], 86 % of control; under setting [5], 91 % of control; under setting [6], 86 % of control.
